In data set [1] the test system is SW620 cells. Briefly: ROS measurement by DCFH-DA staining and flow cytometry, SW620. In kind it is cell-based, human. To be noted: 2 μM, 24 h. How it is done:
(§1) […]. DCFH-DA was deacetylated by intracellular esterase to a non-fluorescent compound, which was later oxidized by intracellular ROS to the fluorescent DCF. DCF fluorescence was detected using flow cytometer and data was analyzed using FlowJo software (version 10.4).
(§2) g, h ROS measurement of SW620 (g) and HCT116 (h) cells with compounds treatment. […].
For orientation: In flow cytometry, cells or beads pass a laser one at a time.

Data set [2] addresses T1, PRDX2 (Homo sapiens, UniProt P32119).
T1 sequence (P32119 1-198): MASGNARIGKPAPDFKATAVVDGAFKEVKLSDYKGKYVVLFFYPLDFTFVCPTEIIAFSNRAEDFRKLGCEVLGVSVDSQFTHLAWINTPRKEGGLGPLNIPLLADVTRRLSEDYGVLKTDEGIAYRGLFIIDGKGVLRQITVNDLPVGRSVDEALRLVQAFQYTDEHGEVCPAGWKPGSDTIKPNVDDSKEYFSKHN
Briefly: Trx-TrxR-NADPH coupling peroxiredoxin activity assay, PRDX2. The format is biochemical.

Data set [3] deals with SW620 cells. Kind of data set: CCK-8 proliferation assay, SW620. The format is cell-based. To be noted: Homo sapiens, SW-620; 24 h treatment. How it is done:
(§3) SW620 or HCT116 cells were seeded into 96-well plate overnight at 5000 cells per well or 4000 cells per well respectively. […] Cell numbers were assessed using the CCK-8 reagent at OD 450. The IC50 values were calculated by fitting the data points with the dose-response function in GraphPad.
For orientation: Tetrazolium dyes change colour on reduction, which living cells bring about.

The target of data set [4] is T2, PRDX4 (Homo sapiens, UniProt Q13162).
T2 sequence (Q13162 38-271): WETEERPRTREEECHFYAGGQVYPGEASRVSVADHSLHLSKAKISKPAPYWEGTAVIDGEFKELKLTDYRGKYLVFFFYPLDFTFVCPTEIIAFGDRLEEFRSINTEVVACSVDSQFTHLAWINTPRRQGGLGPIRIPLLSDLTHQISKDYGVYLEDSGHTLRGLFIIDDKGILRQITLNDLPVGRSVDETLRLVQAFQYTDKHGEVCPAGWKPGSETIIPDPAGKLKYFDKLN
Briefly: Trx-TrxR-NADPH coupling peroxiredoxin activity assay, PRDX4. To be noted: for inhibition of the peroxidase activity of PRDX4 (in words): recombinant PRDX4. In kind it is biochemical.

Data set [5] has as its system NCM460 cells. Briefly: Proliferation IC50 in NCM460. In kind it is cell-based. To be noted: Homo sapiens, NCM460, 24 h, read-out: IC50 of proliferation, NCM460.
The subject of data set [6] is gNS SW620 cells. Briefly: Proliferation IC50 in scrambled (gNS) SW620 cells. In kind it is cell-based. The note with it: Homo sapiens, SW-620, 24 h, read-out: IC50 against the proliferation of scrambled (gNS) SW620 cells. As for the experimental part: (§4) To generate PRDX1 knockdown cell lines, gRNA targeting […] was cloned into the vector pHBLV-U6-gRNA-EF1-CAS9-PURO from HanBio. The gRNA, psPAX2, and pMD2·G plasmids were mixed and co-transfected into HEK293T cells using Lipofectamine 2000 (Thermo Fisher Scientific). Medium with lentiviruses was collected and filtered through 0.45 μm filters at 48 h after transfection. Lentiviruses was used to infect the indicated cells with 8 μg/mL polybrene (Sigma-Aldrich) for 2 days. The infected cells were selected in medium containing 2 μg/mL puromycin (Sigma-Aldrich) for 3 days, and PRDX1 protein expression level were examined by western blot.
as §3

Data set [7] relates to SW620-gNS xenografts. Kind of data set: SW620-gNS xenograft tumor growth in nude mice. The note with it: 2 mg/kg intraperitoneally, 5 days per week for 2 weeks.
Data set [8] relates to NCM460 cells. Briefly: ROS measurement by DCFH-DA staining and flow cytometry, NCM460. The format is cell-based, human. To be noted: 2 μM, 24 h. As for the experimental part: as §1
b ROS measurement of NCM460 cells with compounds treatment. […].

Data set [9] has as its system gPRDX1 SW620 cells. Kind of data set: Proliferation IC50 in PRDX1 knockdown (gPRDX1) SW620 cells. The format is cell-based. The note with it: Homo sapiens, SW-620, 24 h, read-out: IC50 against the proliferation of PRDX1 knockdown (gPRDX1) SW620 cells. How it is done:
as §4, §3

The test system of data set [10] is HCT116 cells. Kind of data set: ROS measurement by DCFH-DA staining and flow cytometry, HCT116. The note with it: 2 μM, 24 h. In kind it is cell-based, human. How it is done:
as §1, §2

A short description of data set [11]: Body weight of xenograft-bearing nude mice. The note with it: 2 mg/kg, day 12, average of gNS and gPRDX1 groups.
For data set [12], the system named is HCT116 cells. Kind of data set: Cell viability by trypan blue staining, HCT116. The note with it: for viability at 0.5 µM: Homo sapiens, HCT-116, 24 h, read-out: cells viability, HCT116. As for the experimental part: Total cell number and viability were counted with trypan blue staining. To measure apoptosis, cells were harvested and followed by flow cytometric analysis using the Annexin V-FITC / PI apoptosis detection kit according to the manufacturer’s protocol. Cell apoptosis was analyzed by FlowJo software.
e, f Cell viability were measured by trypan-blue staining.

For data set [13], the target named is T3, PRDX6 (Homo sapiens, UniProt P30041).
T3 sequence (P30041 1-224): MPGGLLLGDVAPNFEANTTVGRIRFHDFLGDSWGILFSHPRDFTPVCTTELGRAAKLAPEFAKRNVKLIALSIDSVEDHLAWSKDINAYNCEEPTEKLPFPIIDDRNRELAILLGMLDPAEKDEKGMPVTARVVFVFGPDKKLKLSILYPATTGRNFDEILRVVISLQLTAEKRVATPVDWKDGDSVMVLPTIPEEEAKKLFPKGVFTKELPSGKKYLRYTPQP
Kind of data set: Trx-TrxR-NADPH coupling peroxiredoxin activity assay, PRDX6. In kind it is biochemical. How it is done:
The assay was conducted in 96-well plates as previously described.[47] […] Then, the mixture solution containing 0.3 µM yeast Trx, 0.15 µM yeast TrxR and 200 µM NADPH was added to assay wells. The reaction was initiated with 100 µM hydrogen peroxide (H2O2) and detected with Thermo Multiskan FC at 340 nm. For PRDX1-6, the work concentration is 0.6 µM, 1.5 µM, 1 µM, 3 µM, 0.5 µM, 10 µM respectively. The initial reaction’s slope of assay wells containing mixture solution and H2O2 without PRDXs and compounds (S100%) were considered as 100 % inhibition of PRDXs’ peroxidase activity. The initial reaction’s slope of assay wells containing mixture solution, H2O2 and PRDXs without compounds (S0%) were considered as 0% inhibition of PRDXs’ peroxidase activity. […] The inhibition rate (%) was calculated from the following equations: 100 – (Scompound − S100%)/(S0% − S100%) × 100. […] Data were analyzed using GraphPad (version 8.0).

Data set [14] addresses T4, PRDX5 (Homo sapiens, UniProt P30044).
T4 sequence (P30044 53-214): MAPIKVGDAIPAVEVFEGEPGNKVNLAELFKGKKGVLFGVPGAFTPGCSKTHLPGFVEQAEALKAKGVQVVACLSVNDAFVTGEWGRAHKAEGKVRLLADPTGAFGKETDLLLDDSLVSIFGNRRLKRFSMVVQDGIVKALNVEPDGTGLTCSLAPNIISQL
Briefly: Trx-TrxR-NADPH coupling peroxiredoxin activity assay, PRDX5. In kind it is biochemical.

Where two headings read alike, the source gives them in different places.

In general, viability refers to a per cent measure of how many cells are alive, often set against a control.

As for `CC1=C(O)C(=O)C=C2C1=CC=C1[C@@]2(C)CC[C@@]2(C)[C@@H]3C[C@](C)(C(=O)O)CC[C@]3(C)CC[C@]12C` [Celastrol, reference compound], the “ROS-positive rate, SW620” value in data set [1] came to 61.07%. Further, the IC50 in data set [2] was 3.79 ± 0.26 µM; in data set [3], 0.69 µM; in data set [4], greater than 100 µM; in [5] it was 2.66 µM; in [6], 0.634 ± 0.0113 µM; in data set [9], 0.494 ± 0.0108 µM. Also, the IC50 in data set [13] (recombinant PRDX6, 1.5 h incubation, mean ± SEM, triplicate, read-out: IC50 against the peroxidase activity of PRDX6) worked out at 27.3 ± 0.39 µM; in data set [14] it was 2.3 ± 0.13 µM. In data set [4], the “inhibition of the peroxidase activity of PRDX4 (in words)” value is “no obvious inhibitory effect”. Also, the “tumor progression of SW620-gNS xenografts (in words)” value in data set [7] was “suppressed the overall tumor progression”. Moreover, the “intracellular ROS positive rate, NCM460” value in [8] is on record as 26.5%. For the same compound, the “ROS-positive rate, HCT116” value in data set [10] came out at 88.4%. Besides, in data set [11], the “body weight loss as compared to DMSO control” value is 11.2%. Besides, the viability at 0.5 µM in data set [12] was roughly 80%.
For the compound `COC(=O)[C@H](C)NC(=O)N[C@]1(C)CC[C@]2(C)CC[C@]3(C)C4=CC=C5C(=CC(=O)C(O)=C5C)[C@]4(C)CC[C@@]3(C)[C@@H]2C1` [19-048, Methyl (((2R,4aS,6aS,12bR,14aS,14bR)-10-hydroxy-2,4a,6a,9,12b,14a-hexamethyl-11-oxo-1,2,3,4,4a,5,6,6a,11,12b,13,14,14a,14b-tetradecahydropicen-2-yl)carbamoyl)-L-alaninate], in data set [1], the “ROS-positive rate, SW620” value stood at 74.77%. For the same compound, in [2] (recombinant PRDX2), the “inhibition of the peroxidase activity of PRDX2 (in words)” value is recorded as “no obvious inhibition”. The IC50 was greater than 100 µM in [2] (recombinant PRDX2, 1.5 h incubation, mean ± SEM, triplicate, read-out: IC50 against the peroxidase activity of PRDX2); 0.528 µM in data set [3]; greater than 100 µM in [4] (recombinant PRDX4, 1.5 h incubation, read-out: IC50 against the peroxidase activity of PRDX4); 2.23 µM in data set [5]; 0.529 ± 0.00669 µM in [6]; 0.431 ± 0.00914 µM in [9]. Further, the IC50 in data set [13] was greater than 100 µM; in data set [14] (recombinant PRDX5, 1.5 h incubation, mean ± SEM, triplicate, read-out: IC50 against the peroxidase activity of PRDX5), greater than 100 µM. In addition, the “inhibition of the peroxidase activity of PRDX4 (in words)” value in [4] is given as “no obvious inhibition”. Further, in data set [7], the “tumor progression of SW620-gNS xenografts (in words)” value is given as “suppressed the overall tumor progression”. The “intracellular ROS positive rate, NCM460” value in data set [8] is listed as 29.13%. The “ROS-positive rate, HCT116” value in [10] was determined as 91.7%. Further, the “body weight loss as compared to DMSO control” value in data set [11] is recorded as 7.3%. In addition, the “cell viability at high concentrations, HCT116 (in words)” value in data set [12] (1, 2 μM, 24 h, trypan blue) is given as “significantly decreased cell viability”. For the same compound, the viability at 0.5 µM in data set [12] was roughly 80%. Also, the “inhibition of the peroxidase activity of PRDX6 (in words)” value in data set [13] (recombinant PRDX6) is “no obvious inhibition”. For the same compound, the “inhibition of the peroxidase activity of PRDX5 (in words)” value in data set [14] (recombinant PRDX5) is “no obvious inhibition”.

The values are drawn from PMC9895061 (Signal Transduction and Targeted Therapy, 2023).
